Source: the supplement of paper PMC12463676, “Small-molecule dissolution of stress granules by redox modulation benefits ALS models” (Nature Chemical Biology, 2025)

Key:
lipoamide = compound: NC(=O)CCCCC1CCSS1 [lipoamide]; experiment: thermal stability z-score vs DMSO; higher = more thermally stabilized by treatment; settings: HeLa, lipoamide concentration 100 µM
Procedure: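 Cellular thermal proteome profiling in HeLa cells. Cells were treated with 100 µM lipoamide for 1 h, with or without 1 mM arsenate for a further 1 h, then heated to ten temperatures (37-66.3 °C), and soluble protein was quantified by TMT mass spectrometry relative to 0.1% DMSO controls. The thermal stability score (sum of log2 fold changes minus the abundance score) was transformed to a z-score; mean of n = 3 experiments.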

potassium arsenate = compound: O=[As]([O-])(O)O.[K+] [potassium arsenate]; experiment: as above; settings: HeLa; arsenate concentration 1 mM
Procedure: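 Cellular thermal proteome profiling in HeLa cells treated with 1 mM arsenate for 1 h (DMSO pretreatment), heated to ten temperatures (37-66.3 °C). Soluble protein was quantified by TMT mass spectrometry relative to DMSO controls; the thermal stability score was transformed to a z-score; mean of n = 3 experiments.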

[1] = arsenate co-treatment: 1 mM arsenate 1 h
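Note: each temperature applied for 3 min, abundance score taken as mean log2 fold change at the two lowest temperatures, z-score obtained by mean subtraction and division by SD.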

Target: KDM1A (UniProt O60341)
- thermal stability z-score (lipoamide; [1]): 1.9
- thermal stability z-score (lipoamide; arsenate co-treatment: none): 2.21
- thermal stability z-score (potassium arsenate): -1.3

Target: CEBPZOS (UniProt A8MTT3)
- thermal stability z-score (lipoamide; [1]): 0.351
- thermal stability z-score (lipoamide; arsenate co-treatment: none): 0.365
- thermal stability z-score (potassium arsenate): 0.526

Target: USP7 (UniProt Q93009)
Sequence of UniProt Q93009 (Q93009 whole entry, looked up): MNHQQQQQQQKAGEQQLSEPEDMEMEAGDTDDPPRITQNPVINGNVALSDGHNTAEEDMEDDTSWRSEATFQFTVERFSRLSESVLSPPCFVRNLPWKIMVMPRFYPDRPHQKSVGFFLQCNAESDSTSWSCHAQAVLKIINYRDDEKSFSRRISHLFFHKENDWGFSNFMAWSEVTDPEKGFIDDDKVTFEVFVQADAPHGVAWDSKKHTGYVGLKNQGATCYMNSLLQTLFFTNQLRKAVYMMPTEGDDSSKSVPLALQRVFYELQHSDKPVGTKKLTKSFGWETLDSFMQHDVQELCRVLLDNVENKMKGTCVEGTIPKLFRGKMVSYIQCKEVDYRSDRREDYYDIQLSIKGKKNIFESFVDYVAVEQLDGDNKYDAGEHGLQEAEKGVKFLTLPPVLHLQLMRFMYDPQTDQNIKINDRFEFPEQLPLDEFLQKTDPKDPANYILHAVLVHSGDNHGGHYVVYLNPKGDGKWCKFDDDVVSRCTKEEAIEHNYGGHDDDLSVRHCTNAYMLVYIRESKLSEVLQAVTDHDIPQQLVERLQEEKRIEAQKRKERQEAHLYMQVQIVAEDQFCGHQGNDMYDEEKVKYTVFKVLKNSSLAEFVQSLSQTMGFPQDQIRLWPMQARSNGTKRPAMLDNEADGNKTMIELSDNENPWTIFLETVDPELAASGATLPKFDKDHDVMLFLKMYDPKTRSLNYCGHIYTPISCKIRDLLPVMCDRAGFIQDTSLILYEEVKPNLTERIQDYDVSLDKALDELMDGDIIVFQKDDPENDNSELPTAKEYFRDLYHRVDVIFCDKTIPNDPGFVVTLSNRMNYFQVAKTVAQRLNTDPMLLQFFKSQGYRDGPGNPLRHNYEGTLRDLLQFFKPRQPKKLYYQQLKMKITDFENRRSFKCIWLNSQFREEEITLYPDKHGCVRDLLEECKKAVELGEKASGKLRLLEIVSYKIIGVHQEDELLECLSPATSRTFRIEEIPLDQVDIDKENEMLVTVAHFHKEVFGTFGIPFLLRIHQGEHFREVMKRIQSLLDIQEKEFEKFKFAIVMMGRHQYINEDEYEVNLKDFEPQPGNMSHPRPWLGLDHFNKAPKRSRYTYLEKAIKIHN
- thermal stability z-score (lipoamide; [1]): 0.299
- thermal stability z-score (lipoamide; arsenate co-treatment: none): 0.123
- thermal stability z-score (potassium arsenate): -0.483

Target: TXN (UniProt P10599)
- thermal stability z-score (lipoamide; [1]): 0.913
- thermal stability z-score (lipoamide; arsenate co-treatment: none): 0.827
- thermal stability z-score (potassium arsenate): 0.598

Target: ARIH1 (UniProt Q9Y4X5)
- thermal stability z-score (lipoamide; [1]): -0.0195
- thermal stability z-score (lipoamide; arsenate co-treatment: none): -0.0439
- thermal stability z-score (potassium arsenate): -0.568

Target: SGTA (UniProt O43765)
- thermal stability z-score (lipoamide; [1]): 0.332
- thermal stability z-score (lipoamide; arsenate co-treatment: none): 0.487
- thermal stability z-score (potassium arsenate): 0.149

Target: RNF126 (UniProt Q9BV68)
- thermal stability z-score (lipoamide; [1]): -1
- thermal stability z-score (lipoamide; arsenate co-treatment: none): -1.02
- thermal stability z-score (potassium arsenate): -2.65

Target: IGF2R (UniProt P11717)
- thermal stability z-score (lipoamide; [1]): -1.48
- thermal stability z-score (lipoamide; arsenate co-treatment: none): -0.964
- thermal stability z-score (potassium arsenate): -0.374

Target: MTPN (UniProt P58546)
Sequence of UniProt P58546 (P58546 whole entry): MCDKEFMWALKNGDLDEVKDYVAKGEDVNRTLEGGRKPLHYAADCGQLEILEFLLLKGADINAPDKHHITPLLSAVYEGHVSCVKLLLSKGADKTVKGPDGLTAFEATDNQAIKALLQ
- thermal stability z-score (lipoamide; [1]): 0.382
- thermal stability z-score (lipoamide; arsenate co-treatment: none): 0.145
- thermal stability z-score (potassium arsenate): -0.432

Target: ABHD16A (UniProt O95870)
- thermal stability z-score (lipoamide; [1]): -0.193
- thermal stability z-score (lipoamide; arsenate co-treatment: none): -0.0821
- thermal stability z-score (potassium arsenate): 1.11

Target: TAX1BP1 (UniProt Q86VP1)
- thermal stability z-score (lipoamide; [1]): -0.152
- thermal stability z-score (lipoamide; arsenate co-treatment: none): 0.411
- thermal stability z-score (potassium arsenate): 0.997

Target: RMND1 (UniProt Q9NWS8)
- thermal stability z-score (lipoamide; [1]): 0.392
- thermal stability z-score (lipoamide; arsenate co-treatment: none): 0.519
- thermal stability z-score (potassium arsenate): 0.244

Target: SRP72 (UniProt O76094)
- thermal stability z-score (lipoamide; [1]): -0.316
- thermal stability z-score (lipoamide; arsenate co-treatment: none): -0.00987
- thermal stability z-score (potassium arsenate): 0.424

Target: EGFL7 (UniProt Q9UHF1)
- thermal stability z-score (lipoamide; [1]): 0.126
- thermal stability z-score (lipoamide; arsenate co-treatment: none): 0.102
- thermal stability z-score (potassium arsenate): -0.108

Target: SPTAN1 (UniProt Q13813)
- thermal stability z-score (lipoamide; [1]): 0.768
- thermal stability z-score (lipoamide; arsenate co-treatment: none): 0.506
- thermal stability z-score (potassium arsenate): -1.44

Target: FAM207A (UniProt Q9NSI2)
Sequence of UniProt Q9NSI2 (Q9NSI2 whole entry): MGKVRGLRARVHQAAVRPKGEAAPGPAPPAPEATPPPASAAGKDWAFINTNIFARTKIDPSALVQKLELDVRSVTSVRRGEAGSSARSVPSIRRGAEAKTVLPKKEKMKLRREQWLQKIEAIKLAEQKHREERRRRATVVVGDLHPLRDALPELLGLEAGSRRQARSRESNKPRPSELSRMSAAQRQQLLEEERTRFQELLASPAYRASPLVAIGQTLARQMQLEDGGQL
- thermal stability z-score (lipoamide; [1]): 0.062
- thermal stability z-score (lipoamide; arsenate co-treatment: none): 0.578
- thermal stability z-score (potassium arsenate): 0.566

Target: ITPR3 (UniProt Q14573)
Sequence of UniProt Q14573 (Q14573 whole entry): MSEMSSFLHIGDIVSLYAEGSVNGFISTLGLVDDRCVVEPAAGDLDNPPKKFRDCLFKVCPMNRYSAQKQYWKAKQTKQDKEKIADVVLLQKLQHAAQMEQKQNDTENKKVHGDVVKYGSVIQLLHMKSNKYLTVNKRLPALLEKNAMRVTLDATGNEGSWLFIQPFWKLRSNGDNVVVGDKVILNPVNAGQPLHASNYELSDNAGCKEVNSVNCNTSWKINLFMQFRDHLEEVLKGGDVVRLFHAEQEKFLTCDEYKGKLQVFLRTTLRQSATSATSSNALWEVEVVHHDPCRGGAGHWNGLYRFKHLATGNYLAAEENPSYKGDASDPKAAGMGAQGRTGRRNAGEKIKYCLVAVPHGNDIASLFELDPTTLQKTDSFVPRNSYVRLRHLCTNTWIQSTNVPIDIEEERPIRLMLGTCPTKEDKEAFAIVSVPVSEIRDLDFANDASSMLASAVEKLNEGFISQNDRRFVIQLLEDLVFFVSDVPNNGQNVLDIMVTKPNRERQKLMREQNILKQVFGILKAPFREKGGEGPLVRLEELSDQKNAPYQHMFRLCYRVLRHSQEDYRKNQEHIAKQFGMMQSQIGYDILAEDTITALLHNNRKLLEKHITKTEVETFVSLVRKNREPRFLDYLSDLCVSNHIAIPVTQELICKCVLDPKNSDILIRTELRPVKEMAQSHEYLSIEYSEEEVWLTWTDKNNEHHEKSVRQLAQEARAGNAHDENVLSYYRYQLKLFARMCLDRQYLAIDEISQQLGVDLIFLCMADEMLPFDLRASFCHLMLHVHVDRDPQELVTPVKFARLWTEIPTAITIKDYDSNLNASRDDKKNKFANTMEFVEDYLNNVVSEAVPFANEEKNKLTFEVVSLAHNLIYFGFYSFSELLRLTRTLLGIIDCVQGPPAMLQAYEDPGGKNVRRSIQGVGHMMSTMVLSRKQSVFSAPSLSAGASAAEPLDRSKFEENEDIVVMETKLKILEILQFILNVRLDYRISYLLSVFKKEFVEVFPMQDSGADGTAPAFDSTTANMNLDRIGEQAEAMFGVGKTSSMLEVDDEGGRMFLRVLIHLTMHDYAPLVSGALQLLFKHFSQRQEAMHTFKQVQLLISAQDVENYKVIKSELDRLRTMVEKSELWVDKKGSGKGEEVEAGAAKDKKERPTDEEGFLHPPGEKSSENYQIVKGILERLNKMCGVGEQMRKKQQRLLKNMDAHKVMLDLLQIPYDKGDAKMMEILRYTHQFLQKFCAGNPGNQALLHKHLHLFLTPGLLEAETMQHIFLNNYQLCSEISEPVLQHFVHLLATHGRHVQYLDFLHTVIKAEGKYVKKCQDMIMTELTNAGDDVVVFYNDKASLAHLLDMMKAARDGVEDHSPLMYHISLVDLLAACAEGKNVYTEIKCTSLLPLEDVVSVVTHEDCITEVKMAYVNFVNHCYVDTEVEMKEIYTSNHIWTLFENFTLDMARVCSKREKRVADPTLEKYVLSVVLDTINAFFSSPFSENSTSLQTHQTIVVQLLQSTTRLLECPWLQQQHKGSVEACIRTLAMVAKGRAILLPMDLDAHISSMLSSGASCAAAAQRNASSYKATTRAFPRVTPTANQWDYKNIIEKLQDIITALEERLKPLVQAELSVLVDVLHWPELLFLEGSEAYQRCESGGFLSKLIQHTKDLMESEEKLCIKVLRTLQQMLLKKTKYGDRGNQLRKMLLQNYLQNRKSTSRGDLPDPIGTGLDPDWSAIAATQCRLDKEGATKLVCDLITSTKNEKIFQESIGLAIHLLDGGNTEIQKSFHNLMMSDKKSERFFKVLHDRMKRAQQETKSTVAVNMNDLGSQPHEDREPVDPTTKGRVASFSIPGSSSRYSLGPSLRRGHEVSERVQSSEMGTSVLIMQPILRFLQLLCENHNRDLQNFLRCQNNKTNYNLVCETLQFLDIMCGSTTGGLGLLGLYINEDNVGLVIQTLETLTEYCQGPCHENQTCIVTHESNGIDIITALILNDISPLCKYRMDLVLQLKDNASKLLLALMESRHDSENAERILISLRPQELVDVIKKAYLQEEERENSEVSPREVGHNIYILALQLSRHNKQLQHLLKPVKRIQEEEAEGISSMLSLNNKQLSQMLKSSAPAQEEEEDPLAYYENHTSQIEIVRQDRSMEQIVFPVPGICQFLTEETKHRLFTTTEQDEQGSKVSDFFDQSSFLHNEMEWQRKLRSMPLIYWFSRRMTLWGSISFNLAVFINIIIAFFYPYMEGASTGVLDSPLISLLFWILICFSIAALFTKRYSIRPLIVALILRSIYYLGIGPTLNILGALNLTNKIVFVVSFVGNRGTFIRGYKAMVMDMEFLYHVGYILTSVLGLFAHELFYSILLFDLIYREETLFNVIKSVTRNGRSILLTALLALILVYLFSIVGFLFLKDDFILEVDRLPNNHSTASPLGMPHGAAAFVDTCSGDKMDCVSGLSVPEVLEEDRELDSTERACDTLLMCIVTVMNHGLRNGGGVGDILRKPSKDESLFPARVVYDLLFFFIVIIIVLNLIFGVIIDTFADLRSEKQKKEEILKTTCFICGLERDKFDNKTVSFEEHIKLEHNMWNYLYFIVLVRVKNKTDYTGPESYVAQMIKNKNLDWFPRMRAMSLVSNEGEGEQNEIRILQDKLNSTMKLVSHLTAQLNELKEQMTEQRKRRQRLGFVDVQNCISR
- thermal stability z-score (lipoamide; [1]): -1.24
- thermal stability z-score (lipoamide; arsenate co-treatment: none): -0.526
- thermal stability z-score (potassium arsenate): -0.418

Target: RPAP3 (UniProt Q9H6T3)
- thermal stability z-score (lipoamide; [1]): -0.367
- thermal stability z-score (lipoamide; arsenate co-treatment: none): -0.207
- thermal stability z-score (potassium arsenate): 0.38

Target: DECR1 (UniProt Q16698)
- thermal stability z-score (lipoamide; [1]): -0.133
- thermal stability z-score (lipoamide; arsenate co-treatment: none): 0.18
- thermal stability z-score (potassium arsenate): -0.0171

Target: CUEDC2 (UniProt Q9H467)
- thermal stability z-score (lipoamide; [1]): -0.0601
- thermal stability z-score (lipoamide; arsenate co-treatment: none): -0.131
- thermal stability z-score (potassium arsenate): 0.0094

Target: ALDH1A3 (UniProt P47895)
- thermal stability z-score (lipoamide; [1]): 0.622
- thermal stability z-score (lipoamide; arsenate co-treatment: none): 0.25
- thermal stability z-score (potassium arsenate): -0.284

Target: SNTB1 (UniProt Q13884)
- thermal stability z-score (lipoamide; [1]): -0.307
- thermal stability z-score (lipoamide; arsenate co-treatment: none): 1.19
- thermal stability z-score (potassium arsenate): 1.29

Target: TYW1 (UniProt Q9NV66)
- thermal stability z-score (lipoamide; [1]): -0.0973
- thermal stability z-score (lipoamide; arsenate co-treatment: none): 0.228
- thermal stability z-score (potassium arsenate): 1.04

Target: PIAS4 (UniProt Q8N2W9)
Sequence of UniProt Q8N2W9 (Q8N2W9 whole entry): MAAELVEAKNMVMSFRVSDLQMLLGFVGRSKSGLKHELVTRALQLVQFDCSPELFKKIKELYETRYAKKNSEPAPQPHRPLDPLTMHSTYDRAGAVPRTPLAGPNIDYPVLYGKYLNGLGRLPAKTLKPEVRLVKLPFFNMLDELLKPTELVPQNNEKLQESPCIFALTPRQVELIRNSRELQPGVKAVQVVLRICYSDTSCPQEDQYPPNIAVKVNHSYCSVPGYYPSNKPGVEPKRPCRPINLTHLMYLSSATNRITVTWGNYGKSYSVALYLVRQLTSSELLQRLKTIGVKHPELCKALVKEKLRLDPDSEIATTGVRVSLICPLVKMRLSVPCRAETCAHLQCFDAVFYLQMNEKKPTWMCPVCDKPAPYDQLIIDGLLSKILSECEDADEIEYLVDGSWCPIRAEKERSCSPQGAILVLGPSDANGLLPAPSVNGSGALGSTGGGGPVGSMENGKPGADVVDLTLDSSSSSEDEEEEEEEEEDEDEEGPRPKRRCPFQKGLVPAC
- thermal stability z-score (lipoamide; [1]): 0.144
- thermal stability z-score (lipoamide; arsenate co-treatment: none): 0.2
- thermal stability z-score (potassium arsenate): 0.136

Target: EXOC2 (UniProt Q96KP1)
- thermal stability z-score (lipoamide; [1]): -0.195
- thermal stability z-score (lipoamide; arsenate co-treatment: none): -0.453
- thermal stability z-score (potassium arsenate): 0.575

Target: PHAX (UniProt Q9H814)
Sequence of UniProt Q9H814 (Q9H814 whole entry): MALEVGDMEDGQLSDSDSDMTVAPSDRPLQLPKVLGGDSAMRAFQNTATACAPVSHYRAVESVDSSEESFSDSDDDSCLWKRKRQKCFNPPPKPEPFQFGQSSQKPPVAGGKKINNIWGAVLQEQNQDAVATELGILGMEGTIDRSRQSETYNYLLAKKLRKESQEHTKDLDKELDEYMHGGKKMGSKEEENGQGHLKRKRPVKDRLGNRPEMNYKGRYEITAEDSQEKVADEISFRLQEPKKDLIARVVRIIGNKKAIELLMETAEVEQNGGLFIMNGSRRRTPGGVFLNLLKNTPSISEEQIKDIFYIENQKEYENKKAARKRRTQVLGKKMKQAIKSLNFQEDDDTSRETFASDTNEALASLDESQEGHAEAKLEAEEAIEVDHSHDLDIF
- thermal stability z-score (lipoamide; [1]): 0.329
- thermal stability z-score (lipoamide; arsenate co-treatment: none): 0.358
- thermal stability z-score (potassium arsenate): 0.321

Target: FAM188A (UniProt Q9H8M7)
- thermal stability z-score (lipoamide; [1]): 0.53
- thermal stability z-score (lipoamide; arsenate co-treatment: none): 0.885
- thermal stability z-score (potassium arsenate): 1.07
